From patent US12077503B2, “Substituted cyclic amides and their use as herbicides” (FMC CORPORATION, priority 2015, dated 2024) come the findings set out here.

Holding throughout (type): in vivo
Test [1] deals with giant foxtail (Setaria faberii). The test can be described thus: Test A postemergence. As to conditions: Setaria faberi, post-emergence, 240 h, 125 g ai/ha, postemergence; visual injury after approximately 10 d; 0 to 100 scale (0 no effect, 100 complete control); read-out: Plant response rating, Foxtail, Giant. The method in brief:
(§1)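 Each rating is a visual injury score from 0 to 100 given about 10 d after treatment, judged against untreated controls kept alongside in the greenhouse. In loam soil–sand blend, seeds got a preemergence directed soil spray, while postemergence plants were 2 to 10 cm tall at spraying.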

For test [2], the system named is wheat (Triticum aestivum). The test can be described thus: Test A postemergence. The settings on record: Triticum aestivum, post-emergence, 240 h, 125 g ai/ha, postemergence; visual injury after approximately 10 d; 0 to 100 scale (0 no effect, 100 complete control); read-out: Plant response rating, Wheat. Put shortly:
as §1

Test [3] deals with pigweed (Amaranthus retroflexus). The test is described as follows: Test A postemergence. The settings on record: Amaranthus retroflexus, post-emergence, 240 h, 125 g ai/ha, postemergence; visual injury after approximately 10 d; 0 to 100 scale (0 no effect, 100 complete control); read-out: Plant response rating, Pigweed. Put shortly:
as §1

Test [4] deals with Kochia (Kochia scoparia). The test can be described thus: Test A postemergence. As to conditions: Bassia scoparia, post-emergence, 240 h, 125 g ai/ha, postemergence; visual injury after approximately 10 d; 0 to 100 scale (0 no effect, 100 complete control); read-out: Plant response rating, Kochia. The method in brief: as §1
Test [5] deals with Galium (catchweed bedstraw, Galium aparine). The test can be described thus: Test A postemergence. The settings on record: Galium, post-emergence, 240 h, 125 g ai/ha, postemergence; visual injury after approximately 10 d; 0 to 100 scale (0 no effect, 100 complete control); read-out: Plant response rating, Galium. The method in brief:
as §1

For test [6], the system named is sedge, umbrella (small-flower umbrella sedge, Cyperus difformis). The test is described as follows: Test B flooded paddy test. As to conditions: Cyperus difformis, Flood, 250 g ai/ha; scale of 0 to 100 where 0 is no effect and 100 is complete control; read-out: Sedge, Umbrella plant response rating. The method in brief: (§2)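 Visual ratings (0 none to 100 complete control) are relative to untreated plants, taken 13–15 d after treatment in a greenhouse. Test material went straight into floodwater standing 3 cm above the soil, kept constant, on plants at the 2-leaf stage.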

The subject of a further test is rice (Oryra sativa). The test is described as follows: Test B flooded paddy test. As to conditions: Oryza sativa, Flood, 250 g ai/ha; scale of 0 to 100 where 0 is no effect and 100 is complete control; read-out: Rice plant response rating. Put shortly: as §2
Test [7] deals with barnyardgrass (Echinochloa crus-galli). The test can be described thus: Test B flooded paddy test. As to conditions: Echinochloa crus-galli, Flood, 250 g ai/ha; scale of 0 to 100 where 0 is no effect and 100 is complete control; read-out: Barnyardgrass plant response rating. The method in brief: as §2
Test [8] deals with ducksalad (Heteranthera limosa). The test can be described thus: Test B flooded paddy test. As to conditions: Heteranthera limosa, Flood, 250 g ai/ha; scale of 0 to 100 where 0 is no effect and 100 is complete control; read-out: Ducksalad plant response rating. Put shortly:
as §2

Test [9] relates to barnyardgrass (Echinochloa crus-galli). The test can be described thus: Test A preemergence. The settings on record: Echinochloa crus-galli, pre-emergence, 240 h; for pest or weed control at 125 g/ha: 125 g ai/ha, visual rating after approx. 10 d, 0 to 100 scale where 0 is no effect and 100 is complete control; for pest or weed control at 500 g/ha: 500 g ai/ha. The method in brief:
as §1

Test [10] concerns giant foxtail (Setaria faberii). The test is described as follows: Test A preemergence. The settings on record: Setaria faberi, pre-emergence, 240 h; for pest or weed control at 125 g/ha: 125 g ai/ha, visual rating after approx. 10 d, 0 to 100 scale where 0 is no effect and 100 is complete control; for pest or weed control at 500 g/ha: 500 g ai/ha. The method in brief: as §1
The test system of test [11] is ryegrass, Italian (Italian ryegrass, Lolium multiflorum). The test is described as follows: Test A preemergence. The settings on record: Lolium multiflorum, pre-emergence, 240 h; for pest or weed control at 125 g/ha: 125 g ai/ha, visual rating after approx. 10 d, 0 to 100 scale where 0 is no effect and 100 is complete control; for pest or weed control at 500 g/ha: 500 g ai/ha. Put shortly: as §1

Test [12] deals with ragweed (common ragweed, Ambrosia elatior). The test can be described thus: Test A preemergence. The settings on record: Ambrosia artemisiifolia, pre-emergence, 240 h; for pest or weed control at 125 g/ha: 125 g ai/ha, visual rating after approx. 10 d, 0 to 100 scale where 0 is no effect and 100 is complete control; for pest or weed control at 500 g/ha: 500 g ai/ha. Put shortly:
as §1

In test [13] the test system is pigweed (Amaranthus retroflexus). The test is described as follows: Test A preemergence. The settings on record: Amaranthus retroflexus, pre-emergence, 240 h; for pest or weed control at 125 g/ha: 125 g ai/ha, visual rating after approx. 10 d, 0 to 100 scale where 0 is no effect and 100 is complete control; for pest or weed control at 500 g/ha: 500 g ai/ha.
Test [14] deals with Kochia (Kochia scoparia). The test is described as follows: Test A preemergence. As to conditions: Bassia scoparia, pre-emergence, 240 h; for pest or weed control at 125 g/ha: 125 g ai/ha, visual rating after approx. 10 d, 0 to 100 scale where 0 is no effect and 100 is complete control; for pest or weed control at 500 g/ha: 500 g ai/ha. The method in brief:
as §1

Setting [15] is: preemergence, read-out: Plant response rating, Barnyardgrass.
Where [16] appears, read: preemergence, 0 to 100 scale, 0 = no effect, 100 = complete control, read-out: Plant response rating, Barnyardgrass.
Where [17] appears, read: preemergence, read-out: Plant response rating, Foxtail, Giant.
The mark [18] stands for this setting: preemergence, 0 to 100 scale, 0 = no effect, 100 = complete control, read-out: Plant response rating, Foxtail, Giant.
Where [19] appears, read: preemergence, read-out: Plant response rating, Ryegrass, Italian.
Where [20] appears, read: preemergence, read-out: Plant response rating, Ragweed.
Where [21] appears, read: preemergence, 0 to 100 scale, 0 = no effect, 100 = complete control, read-out: Plant response rating, Ragweed.
Where [22] appears, read: preemergence, read-out: Plant response rating, Pigweed.
The mark [23] stands for this setting: preemergence, 0 to 100 scale, 0 = no effect, 100 = complete control, read-out: Plant response rating, Pigweed.
Where [24] appears, read: preemergence, read-out: Plant response rating, Kochia.
Where [25] appears, read: preemergence, 0 to 100 scale, 0 = no effect, 100 = complete control, read-out: Plant response rating, Kochia.

Read-outs that look alike come from different tables or passages of the source.

With `O=C1NC[C@H](c2ccc3c(c2)OCO3)[C@H]1C(=O)Nc1cccc(F)c1F` [Compound 731], the pest or weed control at 125 g/ha in test [1] was found to be 50%; in [3], 0%; with Kochia (Kochia scoparia) [4], 0%; in test [5], 20%; in [9] (setting [15]), 80%; in test [10] (setting [17]), 40%. Further, the pest or weed control at 125 g/ha came to 20% in test [11] (setting [19]), 0% in test [12] (setting [20]), 0% in test [13] (setting [22]) and 0% with Kochia (Kochia scoparia) [14] (setting [24]). In addition, the plant injury at 125 g/ha in [2] stood at 0%. For the same molecule, the pest or weed control at 250 g/ha was found to be 0% in [6], 20% in the test with rice (Oryra sativa), 60% in test [7] and 100% in test [8]. Also, the pest or weed control at 500 g/ha turned out to be 90% in test [9] (setting [16]); 90% in [10] (setting [18]); 40% in test [11] (preemergence, 0 to 100 scale, 0 = no effect, 100 = complete control, read-out: Plant response rating, Ryegrass, Italian); 70% in [12] (setting [21]); 0% in test [13] (setting [23]); 60% in the test on Kochia (Kochia scoparia) [14] (setting [25]).
For `CCc1ccc([C@H]2CNC(=S)[C@@H]2C(=O)Nc2cccc(F)c2C)cc1` [Compound 761], the pest or weed control at 125 g/ha was determined as 60% in test [1]; 0% in test [3]; 0% with Kochia (Kochia scoparia) [4]; 0% in test [5]; 90% in test [9] (setting [15]); 60% in test [10] (setting [17]). Also, the pest or weed control at 125 g/ha was 0% in test [11] (setting [19]), 0% in test [12] (setting [20]), 0% in [13] (setting [22]) and 30% in the test on Kochia (Kochia scoparia) [14] (setting [24]). Besides, in test [2], the plant injury at 125 g/ha is 0%. For the same molecule, the pest or weed control at 250 g/ha amounted to 0% in [6], 0% in the test with rice (Oryra sativa), 0% in [7] and 95% in test [8]. Also, the pest or weed control at 500 g/ha turned out to be 100% in [9] (setting [16]); 90% in test [10] (setting [18]); 0% in [12] (setting [21]); 0% in test [13] (setting [23]); 80% with Kochia (Kochia scoparia) [14] (setting [25]).
For `O=C1NC[C@H](c2ccc3c(c2)CCO3)[C@H]1C(=O)Nc1cccc(F)c1F` [Compound 785], the pest or weed control at 125 g/ha in test [1] was 70%; in [3], 0%; in the test on Kochia (Kochia scoparia) [4], 0%; in [5], 50%; in [9] (setting [15]), 90%; in test [10] (setting [17]), 90%. The pest or weed control at 125 g/ha was 0% in test [11] (setting [19]), 0% in [12] (setting [20]), 0% in test [13] (setting [22]) and 20% in the test with Kochia (Kochia scoparia) [14] (setting [24]). For the same molecule, the plant injury at 125 g/ha in [2] was 0%. Besides, the pest or weed control at 250 g/ha worked out at 0% in test [6], 0% in the test on rice (Oryra sativa), 40% in test [7] and 90% in [8]. Also, the pest or weed control at 500 g/ha in test [9] (Preemergence, visual injury vs untreated controls after approximately 10 d, read-out: Barnyardgrass plant response rating (0 to 100 scale where 0 is no effect and 100 is complete control)) stood at 90%; in test [10] (Preemergence, visual injury vs untreated controls after approximately 10 d, read-out: Foxtail, Giant plant response rating (0 to 100 scale where 0 is no effect and 100 is complete control)), 90%; in [11] (Preemergence, visual injury vs untreated controls after approximately 10 d, read-out: Ryegrass, Italian plant response rating (0 to 100 scale where 0 is no effect and 100 is complete control)) it was 40%; in test [12] (Preemergence, visual injury vs untreated controls after approximately 10 d, read-out: Ragweed plant response rating (0 to 100 scale where 0 is no effect and 100 is complete control)), 0%; in test [13] (Preemergence, visual injury vs untreated controls after approximately 10 d, read-out: Pigweed plant response rating (0 to 100 scale where 0 is no effect and 100 is complete control)) it was 20%; in the test with Kochia (Kochia scoparia) [14] (Preemergence, visual injury vs untreated controls after approximately 10 d, read-out: Kochia plant response rating (0 to 100 scale where 0 is no effect and 100 is complete control)), 40%.
